Results: EP1582213A1, “Use of adenosine for treating surgery related ischemia” (Ludwig-Maximilians-Universität München, priority 2004, dated 2005)

Key:
Format in all cases: in vivo, human
[1] = Quick test (prothrombin time) on blood samples of patients after partial liver resection
Procedure: (§1) Adenosine group: The members of this group were experiencing liver trauma during resection and additional organ ischemia during resection (Pringle-manoeuvre, duration 30 to 45 minutes). Liver protection was realised by intermitting central venous administration of adenosine (infusion duration 10 minutes, 120 to 150 µg/kg body weight/min) 20 minutes prior to resection/ischemia, and a new continuous infusion immediately after reperfusion (infusion duration 70 to 90 minutes, 120 to 150 µg/kg body weight/min).
(§2) The following tests were carried out in order to assess the post-operational organ functions: • 1. Quick test • 2. Determination of the bilirubin • 3. Lactate for monitoring the energetic situation
(§3) Any of the results obtained by applying these tests on blood samples taken from the members of the various study groups, are depicted in table 1: Table 1:
The quick test serves as a parameter for the assessment of the protein synthesis performance of the liver after the procedure.

interleukin 6 = assay: Interleukin 6 titre in blood of patients before and after liver resection (Fig. 2); conditions: post-procedure increase, first and second day after resection; adenosine group vs. control groups; three to five patients per group
Procedure: as §1
(§4) To assess protection conferred by adenosine on the anti-inflammation branch, both interleukin 6 and granulocyte functions were determined, whereby the results are presented in Figs. 2 and 3.
As depicted in Fig. 2, the level of interleukin 6 increased in any of the four groups, whereby each group consisted of three to five patients. Such increase is typically observed as a post-procedure reaction. The serum titres of the pro-inflammatory cytokine interleukin 6 can increase by three magnitudes compared to the pre-procedure titre and were highest in control group 2, where both surgical liver trauma and ischemia/reperfusion were combined.

[2] = test system: beta 2 adhesion molecules on circulating granulocytes; assay: Granulocyte function: expression of beta 2-integrins on circulating granulocytes, FACScan with FITC marked anti-CD18 antibody (Fig. 3); conditions: observed immediately after ischemia and reperfusion; adenosine administered prior and after ischemia; vs. control groups 1 and 2
Procedure: as §1, §4
The further parameter for anti-inflammation, i. e. granulocyte function, was measured as the inhibition of potential cytotoxic functions of white blood cells due to liver ischemia which was measured using the expression of beta 2-intergrins through the monoclonal anti-CD18 antibody. More particularly, the expression was determined prior to ischemia and 3, 30 and 120 minutes after reperfusion. The cells were analysed using a FACScan and a FITC marked anti-CD18 antibody. […] As indicated in Fig. 3 $ p < 0.05 vs. control group 1, # p < 0.05 vs. control group 2.

[3] = Determination of bilirubin in blood samples of patients after partial liver resection
Procedure: as §1, §2
Any of the results obtained by applying these tests on blood samples taken from the members of the various study groups, are depicted in table 1: Table 1: […]

[4] = Lactate in serum for monitoring the energetic situation after partial liver resection
Procedure: as §1, §2, §3
Also using lactate as a parameter for cytoprotective effects confirms the significant effectiveness of adenosine administration. The lactate concentration in serum is regarded as a marker for the extent of anaerobic metabolism due to lack of oxygen caused by a cellular lack of energy. The lactate concentrations in the serum are highest post-procedure in group 2, where surgical liver trauma and ischemia/reperfusion was combined.

[5] = second postoperative day, same regimen, mean
[6] = first postoperative day, adenosine 120 to 150 µg/kg body weight/min prior to resection/ischemia and after reperfusion, mean

For Nc1ncnc2c1ncn2[C@@H]1O[C@H](CO)[C@@H](O)[C@H]1O [Adenosine, adenosine], the “value of the quick test on the first and second day after surgery (liver synthesis performance)” value ([1]; adenosine group compared with the control groups) was “higher in the adenosine group”, the “PT(Quick)1” value ([1]; first postoperative day, partial liver resection with Pringle-manoeuvre 30 to 45 minutes, adenosine central venous 120 to 150 µg/kg body weight/min, 10 minutes given 20 minutes prior to resection/ischemia and 70 to 90 minutes after reperfusion, mean) was “#*66%” and the “PT(Quick)pre” value ([1]; preoperative baseline, Prothrombin Time expressed as Quick-values, mean of adenosine group, norm 70-100 %) was 100%. The “PT(Quick)2” value [1, 5] was 72%, the “IL 6 titre” value (interleukin 6) was “significantly less pronounced” and the “activation of granulocytes circulating in the blood” value [2] was “effectively avoided”. The bilirubin concentration ([3]; adenosine group, post-procedure vs. pre-procedure values) was “remained unchanged compared to pre- procedure values”, the bili-1 [3, 6] was “#0,6 mg/dI” and the bili pre ([3]; preoperative baseline, bilirubin, mean of adenosine group, norm <1,0) was 0,4 mg/dI. For the same compound, the bili-2 [3, 5] was “#0,5 mg/dI”, the Lactate-1 [4, 6] was 1,8 mmo I/I and the “initial increase in the lactate on the first post-procedure day” value ([4]; intravenous systemic administration of adenosine prior and after resection and ischemia, compared with control group 2) was “less pronounced”. For the same compound, the Lactat pre ([4]; preoperative baseline, lactate-concentration, mean of adenosine group, norm <2) was <1,0 mmo I/I and the Lactate-2 [4, 5] was 1,2 mmo I/I.
